Consider 20 compounds from ChEMBL document CHEMBL1141388, “2-Cyano-pyrimidines: a new chemotype for inhibitors of the cysteine protease cathepsin K” (J Med Chem, 2007).

Sequence of Procathepsin L (P07711 whole entry): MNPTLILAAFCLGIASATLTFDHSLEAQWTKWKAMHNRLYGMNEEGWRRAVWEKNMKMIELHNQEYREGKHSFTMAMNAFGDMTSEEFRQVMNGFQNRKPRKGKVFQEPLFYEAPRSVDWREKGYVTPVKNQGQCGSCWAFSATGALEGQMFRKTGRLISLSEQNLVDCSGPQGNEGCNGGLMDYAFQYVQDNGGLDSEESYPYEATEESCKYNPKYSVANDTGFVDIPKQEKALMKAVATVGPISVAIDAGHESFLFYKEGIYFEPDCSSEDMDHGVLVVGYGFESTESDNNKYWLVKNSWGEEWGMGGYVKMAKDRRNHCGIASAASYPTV

Test system in one data set: not listed separately
The data set is described as follows: Clearance in rat at 4 uM/kg, iv and 10 uM/kg, po. It counts as ADME, organism-based. As to conditions: in vivo.
`CC(C)(C)CNc1nc(C#N)ncc1C(=O)NCCc1ccc(OCCn2ccnc2)cc1` showed a clearance of 462 mL/min/kg.

Test system in a further data set: not listed separately
The data set is described as follows: Half life in rat at 4 uM/kg, iv and 10 uM/kg, po. It counts as ADME, organism-based. As to conditions: in vivo.
In the case of `CC(C)(C)CNc1nc(C#N)ncc1C(=O)NCCc1ccc(OCCn2ccnc2)cc1`, the half-life (usually the time needed for the level to fall by half in the phase considered) is 48 min.

A further data set addresses Procathepsin L (Homo sapiens, UniProt P07711). The data set is described as follows: Inhibition of human recombinant cathepsin L.
Conditions: not given
In the case of `CC(C)(C)CNc1nc(C#N)ncc1C(=O)NCCc1ccc(N2CCCC2)cc1`, the IC50 (commonly the concentration at which inhibition is half-maximal) was greater than 10000 nM.

Regarding `COc1cccc(CCNC(=O)c2cnc(C#N)nc2NC2CCCCC2)c1`, the half-maximal inhibitory concentration (IC50) came out at 310 nM.

Regarding `N#Cc1ncc(C(=O)NCCc2ccccc2)c(NC2CCCCC2)n1`, the IC50 stood at 1100 nM.

`CC(C)(C)CNc1nc(C#N)ncc1C(=O)NCCc1cccc(OCCn2ccnc2)c1`: the concentration for half-maximal inhibition (IC50) is 680 nM.

As to `CN1CCN(c2cccc(CCNC(=O)c3cnc(C#N)nc3NCC(C)(C)C)c2)CC1`, the IC50 is 820 nM.

On to `COc1ccc(CCNC(=O)c2cnc(C#N)nc2NCC(C)(C)C)cc1OCCn1ccnc1`, for which the half-inhibitory concentration (IC50) was found to be 580 nM.

With `COc1ccc(CCNC(=O)c2cnc(C#N)nc2NCC(C)(C)C)cc1`, the IC50 was 340 nM.

Take `CN1CCN(Cc2ccc(CCNC(=O)c3cnc(C#N)nc3NCC(C)(C)C)cc2)CC1`: the IC50 was 330 nM.

In the case of `CN1CCN(c2ccc(CCNC(=O)c3cnc(C#N)nc3NCC(C)(C)C)cc2)CC1`, the half-maximal inhibitory concentration (IC50) was 3900 nM.

Regarding `COc1ccc(CCNC(=O)c2cnc(C#N)nc2NC2CCCCC2)cc1`, the concentration for half-maximal inhibition (IC50) came to 170 nM.

For `COc1cccc(CCNC(=O)c2cnc(C#N)nc2NCC(C)(C)C)c1`, the concentration for half-maximal inhibition (IC50) was determined as 1200 nM.

Consider `CN1CCN(c2ccc(CCNC(=O)c3cnc(C#N)nc3NC3CCCCC3)cc2)CC1`, for which the IC50 amounted to 450 nM.

For the compound `CN1CCC(Oc2ccc(CCNC(=O)c3cnc(C#N)nc3NCC(C)(C)C)cc2)CC1`, the IC50 is 1700 nM.

Turning to `N#Cc1ncc(C(=O)NCCc2ccc(N3CCCC3)cc2)c(NC2CCCCC2)n1`, the 50% inhibitory concentration (IC50) amounted to 5100 nM.

Consider `CC(C)(C)CNc1nc(C#N)ncc1C(=O)NCCc1ccc(OCCn2ccnc2)cc1`, for which the concentration for half-maximal inhibition (IC50) came out at 520 nM.

The target in the next data set is T1, Cathepsin K (Homo sapiens, UniProt P43235).
T1 sequence (P43235 whole entry): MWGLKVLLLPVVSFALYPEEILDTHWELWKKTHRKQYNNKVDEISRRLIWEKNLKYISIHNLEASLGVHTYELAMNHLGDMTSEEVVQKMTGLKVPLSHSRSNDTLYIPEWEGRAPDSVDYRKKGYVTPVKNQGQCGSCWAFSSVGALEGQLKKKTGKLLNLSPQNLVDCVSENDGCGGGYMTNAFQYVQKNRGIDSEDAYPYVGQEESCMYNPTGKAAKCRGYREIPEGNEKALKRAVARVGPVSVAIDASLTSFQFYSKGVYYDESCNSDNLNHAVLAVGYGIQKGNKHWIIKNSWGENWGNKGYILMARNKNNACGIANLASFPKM
The experiment in a line: Inhibition of human recombinant cathepsin K.
Conditions: not given
As for `N#Cc1cccc(NC2CCCCC2)n1`, the IC50 is 1000 nM.

For `N#Cc1nccc(NC2CCCCC2)n1`, the half-inhibitory concentration (IC50) came out at 170 nM.

In the case of `CC(C)(C)CNc1nc(C#N)ncc1C(=O)NCCc1ccc(N2CCCC2)cc1`, the 50% inhibitory concentration (IC50) was determined as 300 nM.

Consider `COc1cccc(CCNC(=O)c2cnc(C#N)nc2NC2CCCCC2)c1`, for which the IC50 stood at 9 nM.

As for `N#Cc1ncc(C(=O)NCCc2ccccc2)c(NC2CCCCC2)n1`, the 50% inhibitory concentration (IC50) turned out to be 10 nM.

As for `CC(C)(C)CNc1nc(C#N)ncc1C(=O)NCCc1cccc(OCCn2ccnc2)c1`, the half-inhibitory concentration (IC50) turned out to be 3 nM.

Take `CN1CCN(c2cccc(CCNC(=O)c3cnc(C#N)nc3NCC(C)(C)C)c2)CC1`: the IC50 is 11 nM.

With `COc1ccc(CCNC(=O)c2cnc(C#N)nc2NCC(C)(C)C)cc1OCCn1ccnc1`, the half-maximal inhibitory concentration (IC50) came to 31 nM.

For the compound `N#Cc1cccc(NC2CCCCC2)c1`, the half-inhibitory concentration (IC50) was greater than 1000 nM.

Regarding `COc1ccc(CCNC(=O)c2cnc(C#N)nc2NCC(C)(C)C)cc1`, the 50% inhibitory concentration (IC50) is less than 3 nM.

As for `CN1CCN(Cc2ccc(CCNC(=O)c3cnc(C#N)nc3NCC(C)(C)C)cc2)CC1`, the concentration for half-maximal inhibition (IC50) was 11 nM.

Consider `CN1CCN(c2ccc(CCNC(=O)c3cnc(C#N)nc3NCC(C)(C)C)cc2)CC1`, for which the IC50 was 25 nM.

As to `COc1ccc(CCNC(=O)c2cnc(C#N)nc2NC2CCCCC2)cc1`, the IC50 came to 22 nM.

Take `N#Cc1cncc(NC2CCCCC2)n1`: the IC50 was greater than 1000 nM.

Turning to `COc1cccc(CCNC(=O)c2cnc(C#N)nc2NCC(C)(C)C)c1`, the concentration for half-maximal inhibition (IC50) is less than 3 nM.

For `CN1CCN(c2ccc(CCNC(=O)c3cnc(C#N)nc3NC3CCCCC3)cc2)CC1`, the half-inhibitory concentration (IC50) amounted to 47 nM.

Regarding `CN1CCC(Oc2ccc(CCNC(=O)c3cnc(C#N)nc3NCC(C)(C)C)cc2)CC1`, the 50% inhibitory concentration (IC50) came to 13 nM.

Consider `N#Cc1ccnc(NC2CCCCC2)n1`, for which the 50% inhibitory concentration (IC50) is 120 nM.

Consider `N#Cc1ncc(C(=O)NCCc2ccc(N3CCCC3)cc2)c(NC2CCCCC2)n1`, for which the concentration for half-maximal inhibition (IC50) was 750 nM.

With `CC(C)(C)CNc1nc(C#N)ncc1C(=O)NCCc1ccc(OCCn2ccnc2)cc1`, the IC50 is 3 nM.

The next data set deals with Cathepsin S (Homo sapiens, UniProt P25774). The data set is described as follows: Inhibition of human recombinant cathepsin S.
Sequence of Cathepsin S (P25774 whole entry): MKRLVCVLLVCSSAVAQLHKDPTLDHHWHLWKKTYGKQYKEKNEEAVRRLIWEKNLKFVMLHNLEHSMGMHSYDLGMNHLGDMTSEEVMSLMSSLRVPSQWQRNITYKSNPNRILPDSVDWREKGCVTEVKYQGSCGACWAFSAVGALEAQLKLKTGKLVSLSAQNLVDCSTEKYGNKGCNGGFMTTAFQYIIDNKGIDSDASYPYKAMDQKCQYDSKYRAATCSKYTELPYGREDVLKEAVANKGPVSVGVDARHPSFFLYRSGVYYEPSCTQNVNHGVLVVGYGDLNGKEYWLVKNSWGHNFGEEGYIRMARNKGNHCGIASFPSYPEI
Conditions: not given
As to `CC(C)(C)CNc1nc(C#N)ncc1C(=O)NCCc1ccc(N2CCCC2)cc1`, the IC50 was greater than 10000 nM.

As to `COc1cccc(CCNC(=O)c2cnc(C#N)nc2NC2CCCCC2)c1`, the concentration for half-maximal inhibition (IC50) came out at 230 nM.

Regarding `N#Cc1ncc(C(=O)NCCc2ccccc2)c(NC2CCCCC2)n1`, the concentration for half-maximal inhibition (IC50) was 130 nM.

Consider `CC(C)(C)CNc1nc(C#N)ncc1C(=O)NCCc1cccc(OCCn2ccnc2)c1`, for which the IC50 is 510 nM.

For the compound `CN1CCN(c2cccc(CCNC(=O)c3cnc(C#N)nc3NCC(C)(C)C)c2)CC1`, the IC50 came out at 1800 nM.

In the case of `COc1ccc(CCNC(=O)c2cnc(C#N)nc2NCC(C)(C)C)cc1OCCn1ccnc1`, the IC50 is 2600 nM.

`COc1ccc(CCNC(=O)c2cnc(C#N)nc2NCC(C)(C)C)cc1`: the IC50 was found to be 1600 nM.

Consider `CN1CCN(Cc2ccc(CCNC(=O)c3cnc(C#N)nc3NCC(C)(C)C)cc2)CC1`, for which the concentration for half-maximal inhibition (IC50) was 2500 nM.

Consider `CN1CCN(c2ccc(CCNC(=O)c3cnc(C#N)nc3NCC(C)(C)C)cc2)CC1`, for which the IC50 stood at 3100 nM.

`COc1ccc(CCNC(=O)c2cnc(C#N)nc2NC2CCCCC2)cc1`: the IC50 was determined as 700 nM.

On to `COc1cccc(CCNC(=O)c2cnc(C#N)nc2NCC(C)(C)C)c1`, for which the IC50 was found to be 900 nM.

Take `CN1CCN(c2ccc(CCNC(=O)c3cnc(C#N)nc3NC3CCCCC3)cc2)CC1`: the IC50 was 480 nM.

Consider `CN1CCC(Oc2ccc(CCNC(=O)c3cnc(C#N)nc3NCC(C)(C)C)cc2)CC1`, for which the IC50 worked out at 10000 nM.

In the case of `N#Cc1ncc(C(=O)NCCc2ccc(N3CCCC3)cc2)c(NC2CCCCC2)n1`, the 50% inhibitory concentration (IC50) stood at 2300 nM.

On to `CC(C)(C)CNc1nc(C#N)ncc1C(=O)NCCc1ccc(OCCn2ccnc2)cc1`, for which the IC50 worked out at 900 nM.
